Laboratory results taken from patent US20250268897A1, “USE OF HETEROCYCLIC COMPOUND IN TREATING DISEASES RELATED TO KINASE DRUG-RESISTANT MUTATION AND METHOD THEREFOR” (Sichuan Kelun-Biotech Biopharmaceutical Co., Ltd., priority 2021, published 2025).

What was measured:
[1] = system: Ba/F3 KIF5B-RET^G810R subcutaneous tumour; assay: In vivo efficacy in BALB/c Nude mouse model with Ba/F3 KIF5B-RET^G810R subcutaneous tumour; conditions: 30 mg/kg, PO, BID × 12; for VP-1 (mm^3, mean ± SEM): tumour volume one day before administration: baseline of the group
RET-G810R enzyme = RET-G810R enzyme (Homo sapiens (Human), UniProt P07949, G810R); assay: RET inhibition experiment, HTRF KinEASE-TK kit, RET-G810R; format: biochemical; conditions: for IC50: Table 2
Chain of RET-G810R enzyme (P07949 29-1114 G810R): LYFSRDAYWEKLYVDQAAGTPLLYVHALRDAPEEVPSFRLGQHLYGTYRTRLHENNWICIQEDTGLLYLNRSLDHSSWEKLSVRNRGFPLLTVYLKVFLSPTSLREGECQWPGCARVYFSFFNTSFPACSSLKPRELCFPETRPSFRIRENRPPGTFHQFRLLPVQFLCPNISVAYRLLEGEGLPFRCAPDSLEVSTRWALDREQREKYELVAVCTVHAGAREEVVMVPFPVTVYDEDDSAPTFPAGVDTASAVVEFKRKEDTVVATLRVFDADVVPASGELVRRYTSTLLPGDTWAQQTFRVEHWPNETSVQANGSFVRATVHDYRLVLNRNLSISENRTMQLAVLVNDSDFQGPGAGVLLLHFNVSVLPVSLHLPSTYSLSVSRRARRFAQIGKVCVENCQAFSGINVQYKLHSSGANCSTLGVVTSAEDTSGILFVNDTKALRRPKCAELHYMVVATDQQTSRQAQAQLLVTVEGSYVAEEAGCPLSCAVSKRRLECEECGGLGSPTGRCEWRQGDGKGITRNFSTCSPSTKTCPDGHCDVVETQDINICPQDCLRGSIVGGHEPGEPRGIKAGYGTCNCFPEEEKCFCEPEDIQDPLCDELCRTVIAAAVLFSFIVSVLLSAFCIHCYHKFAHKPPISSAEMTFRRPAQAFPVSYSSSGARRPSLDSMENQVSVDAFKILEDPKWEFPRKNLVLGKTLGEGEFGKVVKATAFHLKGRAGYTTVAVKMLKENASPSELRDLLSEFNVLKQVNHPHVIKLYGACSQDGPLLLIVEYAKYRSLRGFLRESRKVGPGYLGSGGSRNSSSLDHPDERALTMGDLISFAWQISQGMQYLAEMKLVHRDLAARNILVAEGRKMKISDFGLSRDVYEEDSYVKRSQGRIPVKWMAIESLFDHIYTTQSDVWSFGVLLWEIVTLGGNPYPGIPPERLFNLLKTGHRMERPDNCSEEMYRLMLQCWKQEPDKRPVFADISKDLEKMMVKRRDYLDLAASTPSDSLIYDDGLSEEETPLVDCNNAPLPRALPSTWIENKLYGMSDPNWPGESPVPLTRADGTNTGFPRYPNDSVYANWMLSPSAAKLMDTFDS

RET-G810S enzyme = RET-G810S enzyme (Homo sapiens (Human), UniProt P07949, G810S); assay: RET inhibition experiment, HTRF KinEASE-TK kit, RET-G810S; format: biochemical; conditions: for Inhibition rate on RET-G810S (%) / inhibition at 0.3 µM: compound concentration 300 nM; for inhibition at 0.3 µM: read-out: Inhibition rate on RET-G810S (%); for IC50: Table 4
Chain of RET-G810S enzyme (P07949 29-1114 G810S): as the sequence (P07949 29-1114 G810R) above, with R782S counted along it

RET-G810C enzyme = RET-G810C enzyme (Homo sapiens (Human), UniProt P07949, G810C); assay: RET inhibition experiment, HTRF KinEASE-TK kit, RET-G810C; format: biochemical; conditions: for IC50: Table 6
Chain of RET-G810C enzyme (P07949 29-1114 G810C): as the sequence (P07949 29-1114 G810R) above, with R782C counted along it

Compound: CO[C@]1(C(=O)N[C@@H](C)c2ccc(-n3cc(F)cn3)nc2)CC[C@H](c2nc(C)cc(Nc3cc(C)[nH]n3)n2)CC1 [BLU-667, Pralsetinib]
- TGI (%) tumour growth inhibition rate [1]: 29.78%
- VP12 (mm^3, mean ± SEM): tumour volume on Day 12 of administration [1]: 552.89 ± 29.7 mm^3
- VP-1 (mm^3, mean ± SEM): tumour volume one day before administration [1]: 101.82 ± 5.93 mm^3

Compound: Cc1ccc(CN2C3CC2CN(c2ccc(-c4nc(C)cc(Nc5cc(C)[nH]n5)n4)cn2)C3)cc1 [Compound 2]
- Inhibition rate on RET-G810R (%) (RET-G810R enzyme; compound concentration 300 nM): 70.41 ± 4.57%

Compound: Cc1cc(Nc2cc(C)[nH]n2)nc(-c2ccc(N3CC4CC(C3)N4Cc3ccc(Cl)cn3)nc2)n1 [Compound 3]
- Inhibition rate on RET-G810R (%) (RET-G810R enzyme; compound concentration 300 nM): 72.49 ± 3.15%

Compound: Cc1cnn(-c2ccc(CN3C4CC3CN(c3ccc(-c5nc(C)cc(Nc6cc(C)[nH]n6)n5)cn3)C4)cn2)c1 [Compound 4]
- Inhibition rate on RET-G810R (%) (RET-G810R enzyme; compound concentration 300 nM): 78.98 ± 0.24%
- Inhibition rate on RET-G810S (%) (RET-G810S enzyme): 98.89 ± 0.18%

Compound: Cc1cc(Nc2cc(C)[nH]n2)nc(-c2ccc(N3CC4CC(C3)N4Cc3ccc(-n4cccn4)nc3)nc2)n1 [Compound 5]
- IC50 (RET-G810R enzyme): 185 nM
- Inhibition rate on RET-G810S (%) (RET-G810S enzyme): 97.89 ± 0.57%

Compound: Cc1cc(Nc2cc(C)[nH]n2)nc(-c2ccc(N3CC4CC(C3)N4Cc3ccc(-n4cccn4)cc3)nc2)n1 [Compound 6]
- Inhibition rate on RET-G810R (%) (RET-G810R enzyme; compound concentration 300 nM): 77.16 ± 3.87%
- Inhibition rate on RET-G810S (%) (RET-G810S enzyme): 83.01 ± 1.42%

Compound: Cc1cc(Nc2cc(C)[nH]n2)nc(-c2ccc(N3CC4CC(C3)N4Cc3ccc(-n4cc(F)cn4)cc3)nc2)n1 [Compound 7]
- Inhibition rate on RET-G810S (%) (RET-G810S enzyme): 91.80 ± 0.98%

Compound: Cc1cc(Nc2cc(C)[nH]n2)nc(-c2ccc(N3CC4CC(C3)N4Cc3ccc(-n4ccc(F)n4)nc3)nc2)n1 [Compound 8]
- Inhibition rate on RET-G810S (%) (RET-G810S enzyme): 83.73 ± 3.16%

Compound: Cc1cc(Nc2cc(C)[nH]n2)nc(-c2ccc(N3CC4CC(C3)N4Cc3ccc(-n4cc(Cl)cn4)nc3)nc2)n1 [Compound 9, 2-(6-(6-((6-(4-chloro-1H-pyrazol-1-yl)pyridin-3-yl)methyl)-3,6-diazabicyclo [3.1.1]heptan-3-yl)pyridin-3-yl)-6-methyl-N-(5-methyl-1H-pyrazol-3-yl) pyrimidin-4-amine]
- inhibition at 0.3 µM (RET-G810R enzyme; compound concentration 300 nM, read-out: Inhibition rate on RET-G810R (%)): 78.6 ± 4.5%
- inhibition at 0.3 µM (RET-G810S enzyme): 97.64 ± 0.19%

Compound: Cc1cc(Nc2cc(C)[nH]n2)nc(-c2ccc(N3CC4CC(C3)N4Cc3ccc(-n4cnc(F)c4)nc3)nc2)n1 [Compound 10]
- Inhibition rate on RET-G810R (%) (RET-G810R enzyme; compound concentration 300 nM): 72.78 ± 1.58%
- Inhibition rate on RET-G810S (%) (RET-G810S enzyme): 88.46 ± 2.23%

Compound: Cc1cc(Nc2cc(C)[nH]n2)nc(-c2ccc(N3CC4CC(C3)N4Cc3ccc(-n4nccc4C4CC4)nc3)nc2)n1 [Compound 11]
- Inhibition rate on RET-G810S (%) (RET-G810S enzyme): 90.87 ± 1.13%

Compound: Cc1cc(Nc2cc(C)[nH]n2)nc(-c2ccc(N3CC4CC(C3)N4Cc3ccc(-n4cc(C)c(C)n4)nc3)nc2)n1 [Compound 12]
- Inhibition rate on RET-G810R (%) (RET-G810R enzyme; compound concentration 300 nM): 69.44 ± 0.31%
- Inhibition rate on RET-G810S (%) (RET-G810S enzyme): 99.19 ± 0.55%
- Inhibition rate on RET-G810C (%) (RET-G810C enzyme; compound concentration 300 nM): 69.10 ± 5.56%

Compound: Cc1cc(Nc2cc(C)[nH]n2)nc(-c2ccc(N3CC4CC(C3)N4Cc3ccc(-n4cc(F)cn4)nc3)nc2)c1 [Compound 13]
- Inhibition rate on RET-G810S (%) (RET-G810S enzyme): 97.21 ± 1.01%

Compound: Cc1cc(Nc2cc(C)[nH]n2)nc(-c2ccc(N3CC4CC(C3)N4Cc3ccc(-n4nccc4C4CC4)cc3)nc2)n1 [Compound 14, 2-(6-(6-(4-(5-cyclopropyl-1H-pyrazol-1-yl)benzyl)-3,6-diazabicyclo [3.1.1]heptan-3-yl)pyridin-3-yl)-6-methyl-N-(5-methyl-1H-pyrazol-3-yl) pyrimidin-4-amine]
- inhibition at 0.3 µM (RET-G810S enzyme): 92.56 ± 0.08%

Compound: Cc1cc(Nc2cc(C)[nH]n2)nc(-c2ccc(N3CC4CC(C3)N4Cc3ccc(-n4ccc(C5CC5)n4)cc3)nc2)n1 [Compound 15, 2-(6-(6-(4-(3-cyclopropyl-1H-pyrazol-1-yl)benzyl)-3,6-diazabicyclo [3.1.1]heptan-3-yl)pyridin-3-yl)-6-methyl-N-(5-methyl-1H-pyrazol-3-yl) pyrimidin-4-amine]
- inhibition at 0.3 µM (RET-G810S enzyme): 97.22 ± 0.39%

Compound: Cc1cc(Nc2cc(C)[nH]n2)nc(-c2ccc(N3CC4CC(C3)N4Cc3ccc(-c4ccc(C)o4)nc3)nc2)n1 [Compound 16]
- Inhibition rate on RET-G810S (%) (RET-G810S enzyme): 85.27 ± 0.37%

Compound: Cc1cc(Nc2cc(C)[nH]n2)nc(-c2ccc(N3CC4CC(C3)N4Cc3ccc(-n4ccc(F)n4)cc3)nc2)n1 [Compound 17]
- Inhibition rate on RET-G810S (%) (RET-G810S enzyme): 90.64 ± 0.68%

Compound: Cc1cc(Nc2cc(C)[nH]n2)nc(-c2ccc(N3CC4CC(C3)N4Cc3ccc(-n4cc(F)cn4)nc3)nc2)n1 [Compound 18]
- IC50 (RET-G810R enzyme): 132 nM
- IC50 (RET-G810S enzyme): 15.9 nM
- IC50 (RET-G810C enzyme): 36.3 nM

Compound: Cc1cc(Nc2cc(C)[nH]n2)nc(-c2ccc(N3CC4CC(C3)N4Cc3ccc(-n4nccc4OC4CC4)nc3)nc2)n1 [Compound 19]
- Inhibition rate on RET-G810S (%) (RET-G810S enzyme): 80.98 ± 7.32%
- Inhibition rate on RET-G810C (%) (RET-G810C enzyme; compound concentration 300 nM): 82.80 ± 3.66%

Compound: Cc1cc(Nc2cc(C)[nH]n2)nc(-c2ccc(N3CC4CC(C3)N4Cc3ccc(-n4ncc(F)c4C)nc3)nc2)n1 [Compound 20]
- Inhibition rate on RET-G810S (%) (RET-G810S enzyme): 96.67 ± 0.03%
- Inhibition rate on RET-G810C (%) (RET-G810C enzyme; compound concentration 300 nM): 86.86 ± 1.73%

Compound: Cc1cc(Nc2cc(C)[nH]n2)nc(-c2ccc(N3CC4CC(C3)N4Cc3ccc(-c4ccc[nH]4)nc3)nc2)n1 [Compound 21]
- IC50 (RET-G810S enzyme): 6.61 nM
- IC50 (RET-G810C enzyme): 173 nM

Compound: Cc1cc(Nc2cc(C)[nH]n2)nc(-c2ccc(N3CC4CC(C3)N4Cc3ccc(-n4ncc(F)c4C4CC4)nc3)nc2)n1 [Compound 22]
- Inhibition rate on RET-G810C (%) (RET-G810C enzyme; compound concentration 300 nM): 84.26 ± 6.82%

Compound: Cc1cc(Nc2cc(C)[nH]n2)nc(-c2ccc(N3CC4CC(C3)N4Cc3ccc(-n4ccc(C(C)(C)O)n4)nc3)nc2)n1 [Compound 24, 2-(1-(5-((3-(5-(4-methyl-6-((5-methyl-1H-pyrazol-3-yl)amino)pyrimidin-2-yl)pyridin-2-yl)-3,6-diazabicyclo [3.1.1]heptan-6-yl)methyl)pyridin-2-yl)-1H-pyrazol-3-yl) propan-2-ol]
- IC50 (RET-G810S enzyme): 57.2 nM

Compound: Cc1cc(Nc2cc(C)[nH]n2)nc(-c2ccc(N3CC4CC(C3)N4Cc3ccc(-c4ccn[nH]4)nc3)nc2)n1 [Compound 25]
- Inhibition rate on RET-G810S (%) (RET-G810S enzyme): 97.26 ± 0.72%

Compound: Cc1cc(Nc2cc(C)[nH]n2)nc(-c2ccc(N3CC4CC(C3)N4Cc3ccc(-c4cscn4)nc3)nc2)n1 [Compound 26]
- Inhibition rate on RET-G810S (%) (RET-G810S enzyme): 97.83 ± 0.32%

Compound: Cc1cc(Nc2cc(C)[nH]n2)nc(-c2ccc(N3CC4CC(C3)N4Cc3ccc(-c4ccc(F)[nH]4)nc3)nc2)n1 [Compound 27]
- IC50 (RET-G810S enzyme): 23.1 nM
- Inhibition rate on RET-G810C (%) (RET-G810C enzyme; compound concentration 300 nM): 82.66 ± 2.47%

Compound: Cc1cc(Nc2cc(C)[nH]n2)nc(-c2ccc(N3CC4CC(C3)N4Cc3ccc(-n4nc(F)cc4C)nc3)nc2)n1 [Compound 28, 2-(6-(6-((6-(3-fluoro-5-methyl-1H-pyrazol-1-yl)pyridin-3-yl)methyl)-3,6-diazabicyclo [3.1.1]heptan-3-yl)pyridin-3-yl)-6-methyl-N-(5-methyl-1H-pyrazol-3-yl) pyrimidin-4-amine]
- inhibition at 0.3 µM (RET-G810S enzyme): 90.8 ± 1.24%

Compound: Cc1cc(Nc2cc(C)[nH]n2)nc(-c2ccc(N3CC4CC(C3)N4Cc3ccc(-c4ccco4)nc3)nc2)n1 [Compound 29, 2-(6-(6-((6-(furan-2-yl)pyridin-3-yl)methyl)-3,6-diazabicyclo [3.1.1]heptan-3-yl)pyridin-3-yl)-6-methyl-N-(5-methyl-1H-pyrazol-3-yl) pyrimidin-4-amine]
- inhibition at 0.3 µM (RET-G810S enzyme): 93.21 ± 0.91%

Compound: Cc1cc(Nc2cc(C)[nH]n2)nc(-c2ccc(N3CC4CC(C3)N4Cc3ccc(-n4cc(F)c(C(C)(C)O)n4)nc3)nc2)n1.O=C(O)/C=C/C(=O)O [Compound 30-A, Fumarate of 2-(4-fluoro-1-(5-((3-(5-(4-methyl-6-((5-methyl-1H-pyrazol-3-yl)amino)pyrimidin-2-yl)pyridin-2-yl)-3,6-diazabicyclo [3.1.1]heptan-6-yl)methyl)pyridin-2-yl)-1H-pyrazol-3-yl) propan-2-ol]
- Inhibition rate on RET-G810S (%) (RET-G810S enzyme): 99.01 ± 0.15%
- IC50 (RET-G810C enzyme): 125 nM

Compound: Cc1cc(Nc2cc(C)[nH]n2)nc(-c2ccc(N3CC4CC(C3)N4Cc3cnc(-n4cc(F)cn4)cn3)nc2)n1 [Compound 31, 2-(6-(6-((5-(4-fluoro-1H-pyrazol-1-yl)pyrazin-2-yl)methyl)-3,6-diazabicyclo [3.1.1]hept-3-yl)pyridin-3-yl)-6-methyl-N-(5-methyl-1H-pyrazol-3-yl) pyrimidin-4-amine]
- inhibition at 0.3 µM (RET-G810S enzyme): 99.69 ± 0.14%
- inhibition at 0.3 µM (RET-G810C enzyme; compound concentration 300 nM, read-out: Inhibition rate on RET-G810C (%)): 74.1 ± 1.28%

Compound: COc1ccc(CN2C3CC2CN(c2ccc(-c4cc(OCC(C)(C)O)cn5ncc(C#N)c45)cn2)C3)cn1 [LOXO-292, Selpercatinib]
- TGI (%) tumour growth inhibition rate [1]: 2.69%
- VP12 (mm^3, mean ± SEM): tumour volume on Day 12 of administration [1]: 725.55 ± 54.84 mm^3
- VP-1 (mm^3, mean ± SEM): tumour volume one day before administration [1]: 100.47 ± 4.52 mm^3
